For series [1], the system named is cisplatin-resistant human gastric cancer cell line SGC7901/DDP. Nature of the series: WST-8 (CCK-8) in vitro cytotoxicity test, SGC7901/DDP. The format is cell-based. The settings on record: read-out: IC50, SGC7901/DDP. How it is done:
(§1) A WST-8 colorimetric assay (Cell Counting Kit-8, Dojindo) was used to determine the cytotoxicity of the obtained compounds against four human cancer cell lines (human gastric cancer cell line SGC7901, cisplatin-resistant human gastric cancer cell line SGC7901/DDP, human colon cancer cell line HCT-8, and taxol-resistant human colon cancer cell line HCT-8/T) and noncancerous NCM460 colon cell line. Each cell line (100 μL, 5 × 10^4 cells/mL) was inoculated into standard 96-well, flat-bottom microplates, and incubated with DMEM (for HCT-8 and NCM460) or RPMI-1640 (for HCT-8/T, SGC7901, and SGC7901/DDP) medium for 24 h at 37°C in a humidified atmosphere containing 5% CO2. The attached cells were then incubated with serially diluted NATs (1-8). After continuous exposure to the compounds for 72 h, 10 μL CCK-8 solution was added. After 3 h of incubation at 37°C (5% CO2), the absorbance was measured at 450 nm using a microtiter plate reader (SpectraMax 190, Molecular Devices). Cisplatin and taxol (purity ≥ 98% Sigma, USA) were used as positive controls. All studies were performed in triplicate and the IC50 values were calculated using Prism software.
Background: Tetrazolium dyes change colour on reduction, which living cells bring about.

The subject of series [2] is human gastric cancer cell line SGC7901. Description: WST-8 (CCK-8) in vitro cytotoxicity test, SGC7901. The class given is cell-based. The settings on record: read-out: IC50, SGC7901. The procedure:
as §1

Series [3] deals with human colon cancer cell line HCT-8. Nature of the series: WST-8 (CCK-8) in vitro cytotoxicity test, HCT-8. The settings on record: read-out: IC50, HCT-8. The format is cell-based. The procedure:
as §1

The test system of series [4] is taxol-resistant human colon cancer cell line HCT-8/T. Description: WST-8 (CCK-8) in vitro cytotoxicity test, HCT-8/T. The format is cell-based. The settings on record: read-out: IC50, HCT-8/T. The procedure:
as §1

In series [5] the test system is SGC7901, SGC7901/DDP, HCT-8 and HCT-8/T cell lines. Nature of the series: Cytotoxicity summarised over all four cancer cell lines. The class given is cell-based, human. The settings on record: for IC50: Homo sapiens, read-out: anti-proliferative activity (IC50 span) against all four cell lines; for fold better anti-proliferative activity in drug-resistant cell lines than in sensitive ones: span over compounds 3, 4, 7, 8; for fold higher activity than corresponding oxidized forms (3 and 4): in vitro, span over four cell lines. The procedure:
as §1

The test system of series [6] is noncancerous NCM460 colon cell line. Description: WST-8 (CCK-8) in vitro cytotoxicity test, NCM460. The class given is cell-based. The following applies: Homo sapiens, read-out: IC50, NCM460. The procedure: as §1
The test system of another series is HT-29 cell line. Details: method as in Li et al., 2013. The following applies: ref Li et al., 2013; cited from earlier work.
Series [7] deals with HCT-8 cells. Nature of the series: Cell morphology, DAPI staining. The following applies: 72 h. The format is cell-based, human. The procedure: HCT-8 cells were seeded in 12-well plates at a density of 1 × 10^5 cells per well. After overnight adherence, they were exposed to the indicated concentration of NAT-A for 72 h. After that, the cells were washed with PBS and fixed 4% paraformaldehyde for 30 min at room temperature. After washing with PBS, the cells were stained with DAPI (100 ng/mL) for 15 min in the dark and photographed using a fluorescence microscope (Nikon, Japan).

Series [8] relates to HCT-8 cells. Description: Apoptosis analysis by flow cytometry (Annexin V-FITC/PI). The format is cell-based, human. The settings on record: NAT-A 0.5 μM, 72 h, untreated 7.2 ± 1.1%. The procedure: An Annexin V-FITC/PI Apoptosis Detection kit I (BD Pharmingen, San Diego, CA, USA) was adopted to examine the cell apoptosis according to the manufacturer's instructions. HCT-8 cells were cultured on a six-well plate (3 × 10^5 cells/well) and allowed to attach for 24 h before treated with NAT-A (0 and 0.5 μM) for 72 h. Then cells were harvested, washed with PBS and resuspended in 1 × binding buffer. Cell suspension (100 μL) was incubated with 5 μL FITC Annexin-V and 5 μL propidium iodide (PI) for 15 min in the dark. Following the incubation, 400 μL 1 × binding buffer was added into each sample before analysis using flow cytometry (Thermo Fisher Scientific, Eugene, Oregon, USA). The lower left section of fluorocytogram (Annexin V-, PI-) represents the normal cells, lower right section of fluorocytogram (Annexin V+, PI-) represents early apoptosis cells, and upper right section of fluorocytogram (Annexin V+, PI+) represents late apoptosis cells.
In general terms: In flow cytometry, cells or beads pass a laser one at a time.

The subject of a further series is GRP78. More on the design: method as in Izumikawa et al., 2007. The settings on record: ref Izumikawa et al., 2007; cited from earlier work.
The subject of a further series is K562 cells. Details: method as in Takahashi et al., 2001. The settings on record: ref Takahashi et al., 2001; cited from earlier work.
Another series relates to KB cells. Details: method as in Takahashi et al., 2001. The following applies: ref Takahashi et al., 2001; cited from earlier work.
The mark [9] stands for this setting: Homo sapiens, HCT-8, 72 h exposure, CCK-8, mean ± SD, n = 3.
The mark [10] stands for this setting: Homo sapiens, HCT-8, taxol-resistant, 72 h exposure, CCK-8, mean ± SD, n = 3.
Where [11] appears, read: 72 h exposure, CCK-8, mean ± SD, n = 3.

This is an account of results in article PMC6624652, “Compound Discovery and Structure-Activity Relationship Study of Neoantimycins Against Drug-Resistant Cancer Cells” (Frontiers in Chemistry, 2019).

Like-named read-outs stand apart in the source and are kept apart here.

Regarding `CC[C@H](C)[C@@H]1OC(=O)C(C)(C)C(=O)[C@@H](Cc2ccccc2)OC(=O)[C@H](C(C)C)OC(=O)[C@@H](NC(=O)c2cccc(N)c2O)[C@@H](C)OC1=O` [Compound 1, Neoantimycin J], the IC50 in [1] (Homo sapiens, SGC-7901, 72 h) was over 20 µM; in series [2] (Homo sapiens, SGC-7901, 72 h) it was over 20 µM; in series [3] (Homo sapiens, HCT-8, 72 h) it was over 20 µM; in series [4] (Homo sapiens, HCT-8, 72 h), over 20 µM.

As to `CC(C)[C@@H]1OC(=O)[C@@H](NC(=O)c2cccc(N)c2O)[C@@H](C)OC(=O)[C@H](C(C)C)OC(=O)C(C)(C)C(=O)[C@@H](Cc2ccccc2)OC1=O` [Compound 2, Neoantimycin K], the IC50 in series [1] (Homo sapiens, SGC-7901, 72 h) was over 20 µM; in [2] (Homo sapiens, SGC-7901, 72 h), over 20 µM; in series [3] (Homo sapiens, HCT-8, 72 h) it was over 20 µM; in [4] (Homo sapiens, HCT-8, 72 h), over 20 µM.

For `CC[C@H](C)[C@@H]1OC(=O)C(C)(C)C(=O)[C@@H](Cc2ccccc2)OC(=O)[C@H](C(C)C)OC(=O)[C@@H](NC(=O)c2cccc(NC=O)c2O)[C@@H](C)OC1=O` [Compound 3, Neoantimycin H], the IC50 in series [1] (Homo sapiens, SGC-7901, 72 h) was 0.0122 ± 0.0046 µM; in [2] (Homo sapiens, SGC-7901, 72 h), 0.104 ± 0.0227 µM; in series [5], 0.0015 to 0.523 µM; in series [6] (NCM460, 72 h), 0.115 ± 0.0187 µM; in [3] (Homo sapiens, HCT-8, 72 h), 0.523 ± 0.104 µM; in series [4] (Homo sapiens, HCT-8, 72 h), 0.0266 ± 0.0015 µM. The “fold better anti-proliferative activity in drug-resistant cell lines than in sensitive ones” value (shortened to “fold better anti-proliferative activity”) in [5] is on record as 5.2~33.5 fold.

Take `CC(C)[C@@H]1OC(=O)[C@@H](NC(=O)c2cccc(NC=O)c2O)[C@@H](C)OC(=O)[C@H](C(C)C)OC(=O)C(C)(C)C(=O)[C@@H](Cc2ccccc2)OC1=O` [Compound 4, Neoantimycin I]: the IC50 in series [1] (Homo sapiens, SGC-7901, 72 h) is 0.0157 ± 0.0016 µM; in [2] (Homo sapiens, SGC-7901, 72 h) it was 0.179 ± 0.0183 µM; in series [5], 0.0015 to 0.523 µM; in [6] (NCM460, 72 h) it was over 50 µM; in series [3] (Homo sapiens, HCT-8, 72 h), 0.233 ± 0.0201 µM; in series [4] (Homo sapiens, HCT-8, 72 h) it was 0.0326 ± 0.0042 µM. In series [5], the “fold better anti-proliferative activity” value is 5.2~33.5 fold.

For the compound `CC[C@H](C)[C@@H]1OC(=O)C(C)(C)[C@@H](O)[C@@H](Cc2ccccc2)OC(=O)[C@H](C(C)C)OC(=O)[C@@H](NC(=O)c2cccc(N)c2O)[C@@H](C)OC1=O` [Compound 5, Neoantimycin D], the “antiproliferative activity against HT-29 cell line” value (“antiproliferative activity” below) in the series on HT-29 cell line was “hardly had any significant antiproliferative activity”. The “cytotoxic activity (cell line not named at b4)” value in the series on HT-29 cell line is on record as “did not show any cytotoxic activity”. Moreover, the IC50 in series [1] (Homo sapiens, SGC-7901, 72 h) is over 20 µM; in [2] (Homo sapiens, SGC-7901, 72 h) it was 10.2 µM; in [3] (Homo sapiens, HCT-8, 72 h), over 20 µM; in series [4] (Homo sapiens, HCT-8, 72 h), over 20 µM.

On to `CC(C)[C@@H]1OC(=O)[C@@H](NC(=O)c2cccc(N)c2O)[C@@H](C)OC(=O)[C@H](C(C)C)OC(=O)C(C)(C)[C@@H](O)[C@@H](Cc2ccccc2)OC1=O` [Compound 6, Neoantimycin E], for which the “antiproliferative activity” value in the series with HT-29 cell line is listed as “hardly had any significant antiproliferative activity”. The IC50 in series [1] (Homo sapiens, SGC-7901, 72 h) was over 20 µM; in series [2] (Homo sapiens, SGC-7901, 72 h), 1.77 µM; in [3] (Homo sapiens, HCT-8, 72 h) it was 13.1 µM; in [4] (Homo sapiens, HCT-8, 72 h), over 20 µM.

On to `CC[C@H](C)[C@@H]1OC(=O)C(C)(C)[C@@H](O)[C@@H](Cc2ccccc2)OC(=O)[C@H](C(C)C)OC(=O)[C@@H](NC(=O)c2cccc(NC=O)c2O)[C@@H](C)OC1=O` [Compound 7, Neoantimycin A], for which the IC50 in [1] (Homo sapiens, SGC-7901, cisplatin-resistant, 72 h exposure, CCK-8, mean ± SD, n = 3) is 0.0015 ± 0.0001 µM; in series [2] (Homo sapiens, SGC-7901, 72 h exposure, CCK-8, mean ± SD, n = 3), 0.0245 ± 0.0033 µM; in series [5] (span over compounds 3, 4, 7, 8 and four cell lines), 0.0015 to 0.523 µM; in [6] (NCM460, noncancerous colon cell, 72 h exposure, CCK-8, mean ± SD, n = 3), over 50 µM; in [3] (setting [9]), 0.0669 ± 0.0057 µM; in series [4] (setting [10]), 0.002 ± 0.0001 µM. The “fold higher activity than corresponding oxidized forms (3 and 4)” value in [5] was 1.2~13 fold. Further, in [5], the “fold better anti-proliferative activity” value is recorded as 5.2~33.5 fold. Besides, the “nuclear morphology after DAPI staining” value in the series with HCT-8 cells [7] is recorded as “nuclear shrinkage, DNA fragments as well as chromatin condensation”. In the series on HCT-8 cells [8], the “percentage of apoptotic cells (Annexin V/PI)” value is 25.9 ± 0.7%.

With `CC(C)[C@@H]1OC(=O)[C@@H](NC(=O)c2cccc(NC=O)c2O)[C@@H](C)OC(=O)[C@H](C(C)C)OC(=O)C(C)(C)[C@@H](O)[C@@H](Cc2ccccc2)OC1=O` [Compound 8, Neoantimycin F], the “antiproliferative activity” value in the series on HT-29 cell line was “hardly had any significant antiproliferative activity”. Further, the IC50 was 0.0064 ± 0.0005 µM in series [1] (Homo sapiens, SGC-7901, 72 h); 0.0985 ± 0.0326 µM in series [2] (Homo sapiens, SGC-7901, 72 h); 0.0015 to 0.523 µM in series [5]; over 50 µM in series [6] (NCM460, 72 h); 0.136 ± 0.0182 µM in series [3] (Homo sapiens, HCT-8, 72 h); 0.0261 ± 0.0001 µM in series [4] (Homo sapiens, HCT-8, 72 h). For the same compound, the “fold higher activity than corresponding oxidized forms (3 and 4)” value in series [5] is on record as 1.2~13 fold. In addition, the “fold better anti-proliferative activity” value in series [5] is listed as 5.2~33.5 fold.

Turning to `CC[C@H](C)[C@@H]1OC(=O)C(C)(C)[C@@H](O)[C@@H](Cc2ccccc2)OC(=O)[C@H](C)OC(=O)[C@@H](NC(=O)c2cccc(N)c2O)[C@H](C)OC1=O` [JBIR-05], the “expression of GRP78” value in the series with GRP78 is on record as “inhibited the expression of GRP78”.

Regarding `CCC(C)C1OC(=O)C(C)(C)C(O)C(Cc2ccccc2)OC(=O)C(C)OC(=O)C(NC(=O)c2cccc(NC=O)c2O)C(C)OC1=O` (stereo not shown) [SW-163 A], in the series with K562 cells, the “cytotoxicity against K562 cells” value was “no cytotoxicity”. The “cytotoxicity against KB cells” value with KB cells is given as “no cytotoxicity”.

`N.N.[Cl][Pt][Cl]` [cisplatin, reference compound]: the IC50 is 5.67 µM in [1] (cisplatin-resistant, 72 h exposure, CCK-8, mean ± SD, n = 3); 2.56 µM in series [2] (setting [11]); 9.49 µM in [3] (setting [11]); over 20 µM in series [4] (taxol-resistant, 72 h exposure, CCK-8, mean ± SD, n = 3).

Turning to `CC(=O)O[C@H]1C(=O)[C@@]2(C)[C@H]([C@H](OC(=O)c3ccccc3)[C@]3(O)C[C@H](OC(=O)[C@H](O)[C@@H](NC(=O)c4ccccc4)c4ccccc4)C(C)=C1C3(C)C)[C@]1(OC(C)=O)CO[C@@H]1C[C@@H]2O` [taxol, reference compound], the IC50 in [3] (setting [9]) is 2.52 µM; in series [4] (setting [10]) it was over 20 µM.
